The values below come from patent US20080125432A1 (Devgen NV, priority 2004, published 2008).

In series [1] the target is T1, human Kv4.3/KChIP2.2 potassium channel (Homo sapiens, UniProt Q9UK17).
T1 construct: expressed in transfected cells
T1 sequence (Q9UK17 1-655): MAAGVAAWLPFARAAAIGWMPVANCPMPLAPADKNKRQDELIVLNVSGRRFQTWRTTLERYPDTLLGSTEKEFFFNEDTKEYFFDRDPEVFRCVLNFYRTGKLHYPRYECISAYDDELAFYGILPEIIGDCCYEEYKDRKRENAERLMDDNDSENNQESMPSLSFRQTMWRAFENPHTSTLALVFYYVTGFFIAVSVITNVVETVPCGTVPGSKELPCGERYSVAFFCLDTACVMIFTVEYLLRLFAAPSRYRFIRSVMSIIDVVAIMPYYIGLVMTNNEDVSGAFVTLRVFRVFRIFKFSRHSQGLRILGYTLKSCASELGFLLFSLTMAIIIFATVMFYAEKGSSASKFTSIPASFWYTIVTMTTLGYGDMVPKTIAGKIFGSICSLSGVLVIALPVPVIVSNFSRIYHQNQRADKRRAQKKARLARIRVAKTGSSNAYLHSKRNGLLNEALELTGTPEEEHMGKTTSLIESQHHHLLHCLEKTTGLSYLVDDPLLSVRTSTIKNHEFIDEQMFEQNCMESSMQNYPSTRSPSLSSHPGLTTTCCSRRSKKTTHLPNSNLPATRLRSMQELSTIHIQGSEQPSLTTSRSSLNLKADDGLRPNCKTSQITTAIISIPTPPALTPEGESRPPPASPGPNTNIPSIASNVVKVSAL
In words: Whole cell patch clamp, CHO-K1 cells stably expressing human Kv4.3/KChIP2.2. Type of series: cell-based. For orientation: In patch-clamp work, channel activity is measured electrically.

Series [2] has as its system human Kv4.3/KChIP2.2 potassium channel. The series is described as above. The conditions noted are these: selectivity for Kv4.3 vs hERG (Patch Clamp test); >5 considered very selective. Type of series: cell-based. (Block of hERG is tested as a sign of cardiac risk.)
Setting [3] is: estimated by Hill fit with hill=1, ymax=100, tested at 2 μM, n=2, read-out: IC50 (μM) Kv4.3.

The IC50 is the concentration needed to halve the response being measured.

Read-outs that look alike come from different tables or passages of the source. Some results are limits rather than exact numbers.

As for `Cc1nc(Nc2ccc(Br)cc2)sc1C(=O)NCc1cccc2ccccc12` [Compound 56, 2-(4-bromo-phenylamino)-4-methyl-thiazole-5-carboxylic acid (naphtalen-1-yl-methyl)-amide], the IC50 in series [1] (Kv4.3 mediated current, charge, patch clamp, read-out: Kv4.3 charge IC50) was 1.07 µM; in series [1] (setting [3]), 1.07 µM. The “Ratio hERG/Kv4.3” value in series [2] stood at 6.6.

As to `COc1ccc(CNC(=O)c2sc(Nc3ccc(Br)cc3)nc2C)cc1` [Compound 60, 2-(4-bromo-phenylamino)-4-methyl-thiazole-5-carboxylic acid 4-methoxy-benzylamide], the IC50 in series [1] (setting [3]) is 0.39 µM. Moreover, the “Ratio hERG/Kv4.3” value in series [2] came to 7.7.

In the case of `Cc1nc(Nc2ccc(Br)cc2)sc1C(=O)NCc1ccc(F)c(C(F)(F)F)c1` [Compound 63, 2-(4-bromo-phenylamino)-4-methyl-thiazole-5-carboxylic acid 4-fluoro-3-trifluoromethyl-benzylamide], the IC50 in series [1] (setting [3]) was 0.16 µM. For the same compound, in series [2], the “Ratio hERG/Kv4.3” value is 33.1.

Regarding `Cc1nc(Nc2ccc(Br)cc2)sc1C(=O)NCc1ccc(N(C)C)cc1` [Compound 64, 2-(4-bromo-phenylamino)-4-methyl-thiazole-5-carboxylic acid 4-dimethylamino-benzylamide], the IC50 in series [1] (setting [3]) was 0.83 µM. Further, the “Ratio hERG/Kv4.3” value in series [2] is listed as above 120.

With `COc1cc(CNC(=O)c2sc(Nc3ccc(Br)cc3)nc2C)cc(OC)c1` [Compound 65, 2-(4-bromo-phenylamino)-4-methyl-thiazole-5-carboxylic acid 3,5-dimethoxy-benzylamide], the IC50 in series [1] (setting [3]) is 0.18 µM. Besides, the “Ratio hERG/Kv4.3” value in series [2] is given as 9.1.

`COc1ccccc1Nc1nc(C)c(C(=O)N[C@H]2CCC[C@@H]2OCc2ccccc2)s1` [Compound 68, 2-(2-methoxy-phenylamino)-4-methyl-thiazole-5-carboxylic acid (1S,2S)-2-(benzyloxycyclopent-1-yl) amide]: the IC50 in series [1] (setting [3]) is 0.54 µM. Moreover, the “Ratio hERG/Kv4.3” value in series [2] is on record as 14.7.
